Laboratory results reported in US20090220435A1, “TIGHT JUNCTION MODULATING PEPTIDE COMPONENTS FOR ENHANCING MUCOSAL DELIVERY OF THERAPEUTIC AGENTS” (priority 2005, published 2009).
Where two headings read alike, the source gives them in different places.

Columns and labels:
[1] = Drug permeation (Papp) in the in vitro epithelial tissue model; conditions: human, pH 5, Papp
Source text: (§1) A. A “kit” of 24 EpiAirway™ units can routinely be employed for evaluating five different formulations, each of which is applied to quadruplicate wells. Each well is employed for determination of permeation kinetics (4 time points), transepithelial electrical resistance (TER). An additional set of wells is employed as controls, which are sham treated during determination of permeation kinetics, but are otherwise handled identically to the test sample-containing units for determinations of transepithelial resistance and viability.
(§2) B. In all experiments, the mucosal delivery formulation to be studied is applied to the apical surface of each unit in a volume of 100 μL, which is sufficient to cover the entire apical surface. An appropriate volume of the test formulation at the concentration applied to the apical surface (no more than 100 μL is generally needed) is set aside for subsequent determination of concentration of the active material by ELISA or other designated assay.
(§3) D. In order to minimize potential sources of error and avoid any formation of concentration gradients, the units are transferred from one 0.9 mL-containing well to another at each time point in the study. These transfers are made at the following time points, based on a zero time at which the 100 μL volume of test material was applied to the apical surface: 15 minutes, 30 minutes, 60 minutes, and 120 minutes.
(§4) F. At the completion of each time point, the medium is removed from the well from which each unit was transferred, and aliquotted into two tubes (one tube receives 700 μL and the other 200 μL) for determination of the concentration of permeated test material and, in the event that the test material is cytotoxic, for release of the cytosolic enzyme, lactate dehydrogenase, from the epithelium. These samples are kept in the refrigerator if the assays are to be conducted within 24 hours, or the samples are subaliquotted and kept frozen at −80° C. until thawed once for assays. Repeated freeze-thaw cycles are to be avoided.
(§5) EIA kit (p/n S-1178(EIAH6101) was purchased from Peninsula Laboratories Inc. (Division of BACHEM, San Carlos, Calif., 800-922-1516). 17×120 mm polypropylene conical tubes (p/n 352097, Falcon, Franklin Lakes, N.J.) were used for all sample preparations. Eight standards were used for PTH quantitation. The rest of the assay procedure was the same as the kit inserts.
(§6) The instant study was designed to evaluate the effect of PN159 itself or in combination with additional permeation enhancers on PTH permeation. The PN159 concentrations evaluated are 25, 50, and 100 μM. The additional permeation enhancers are 45 mg/ml M-β-CD, 1 mg/ml DDPC, and 1 mg/ml EDTA. Sorbitol was used as a tonicifier (146-190 mM) to adjust the osmolarity of formulations to 220 mOsm/kg. The formulation pH was fixed at 4.5. PTH was chosen as a model peptide in this example. 2 mg/ml PTH was combined with PN159 with or without additional permeation enhancers. The combination was tested using an in vitro epithelial tissue model to monitor PTH permeation, transepithelial electrical resistance (TER), and the cytotoxicity of the formulation by LDH assay.
(§7) The concentrations of MC-4RA in the basolateral media was analyzed by the RP-HPLC using a C18 RP chromatography with a flow rate of 1 mL/minute and a column temperature of 25° C. • Solvent A: 0.1% TFA in water; Solvent B: 0.1% TFA in ACN • Injection Volume: 50 μL • Detection: 220 nm • RUN TIME: 15 MIN
(§8) Galantamine concentration in the formulation and in the basolateral media (permeation samples) was determined using an isocratic LC (Waters Alliance) method with UV detection. • Column: Waters Symmetry Shield, C18, 5 um, 25×0.46 cm • Mobile phase: 5% ACN in 50 mM ammonium formate, pH 3.0 • Flow rate: 1 ml/min • Column temperature: 30° C. • Calibration curve: 0-400 μg/ml Galantamine HBr • Detection: UV at 285 nm

[2] = test system: in vitro epithelial tissue model (EpiAirway™); assay: as above
Source text: as §1, §2, §3, §4, §5, §6, §7, §8

[3] = [PN159] 0 μM, galantamine 40 mg/mL pH 5.0, calcitonin 1 mg/mL pH 3.5, PTH1-34 1 mg/mL pH 4.5, PYY3-36 1 mg/mL pH 5.0
[4] = [PN159] 25 μM, galantamine 40 mg/mL pH 5.0, calcitonin 1 mg/mL pH 3.5, PTH1-34 1 mg/mL pH 4.5, PYY3-36 1 mg/mL pH 7.0
[5] = [PN159] 100 μM, galantamine 40 mg/mL pH 5.0, calcitonin 1 mg/mL pH 3.5, PTH1-34 1 mg/mL pH 4.5, PYY3-36 1 mg/mL pH 7.0

COc1ccc2c3c1O[C@H]1C[C@@H](O)C=C[C@@]31CCN(C)C2 [Galantamine, galantamine]
Papp A→B at 120 min, 40 mg/mL [1, 3]: ~2.1 ×10⁻⁶ cm/s
Papp A→B at 120 min, 40 mg/mL [1, 4]: 5.1 ×10⁻⁶ cm/s
Papp A→B at 120 min, 40 mg/mL ([1]; [PN159] 50 μM, galantamine 40 mg/mL pH 5.0, calcitonin 1 mg/mL pH 3.5, PTH1-34 1 mg/mL pH 4.5): 6.2 ×10⁻⁶ cm/s
Papp A→B at 120 min, 40 mg/mL [1, 5]: 7.2 ×10⁻⁶ cm/s
fold increase in Papp in the presence of PN159 ([2]; PN159 25-100 vs drug alone): 2.5-3.5 fold
Papp [2, 3]: 2.1 ×10⁻⁶ cm/s

CC[C@H](C)[C@H](NC(=O)[C@H](CCC(=O)O)NC(=O)[C@H](CO)NC(=O)[C@@H](NC(=O)[C@@H](N)CO)C(C)C)C(=O)N[C@@H](CCC(N)=O)C(=O)N[C@@H](CC(C)C)C(=O)N[C@@H](CCSC)C(=O)N[C@@H](Cc1cnc[nH]1)C(=O)N[C@@H](CC(N)=O)C(=O)N[C@@H](CC(C)C)C(=O)NCC(=O)N[C@@H](CCCCN)C(=O)N[C@@H](Cc1cnc[nH]1)C(=O)N[C@@H](CC(C)C)C(=O)N[C@@H](CC(N)=O)C(=O)N[C@@H](CO)C(=O)N[C@@H](CCSC)C(=O)N[C@@H](CCC(=O)O)C(=O)N[C@@H](CCCN=C(N)N)C(=O)N[C@H](C(=O)N[C@@H](CCC(=O)O)C(=O)N[C@@H](Cc1c[nH]c2ccccc12)C(=O)N[C@@H](CC(C)C)C(=O)N[C@@H](CCCN=C(N)N)C(=O)N[C@@H](CCCCN)C(=O)N[C@@H](CCCCN)C(=O)N[C@@H](CC(C)C)C(=O)N[C@@H](CCC(N)=O)C(=O)N[C@@H](CC(=O)O)C(=O)N[C@H](C(=O)N[C@@H](Cc1cnc[nH]1)C(=O)N[C@@H](CC(N)=O)C(=O)N[C@@H](Cc1ccccc1)C(=O)O)C(C)C)C(C)C [PTH1-34, human parathyroid hormone 1-34]
fold increase in Papp in the presence of PN159 [2]: 3-5 fold
Papp [2, 3]: 0.11 ×10⁻⁶ cm/s
Papp [2, 4]: 0.34 ×10⁻⁶ cm/s
Papp [2, 5]: 0.43 ×10⁻⁶ cm/s
